Laboratory results as given in publication PMC7316778 (Nature Communications, 2020).
Where “and” joins values, the source holds several entries; their conditions need not be identical. Equal entries are not always repeated. Where two headings read alike, the source gives them in different places.

Key:
MAPK14 (p38 alpha) = MAPK14 (p38 alpha) (Homo sapiens, UniProt Q16539); assay: SelectScreen kinase assay
Protocol: (§1) Selectivity profiling assays were performed by the Invitrogen SelectScreen™ Services. […] The concentration of ATP was selected to be equal to the KM, unless indicated otherwise.

PRKD1 (PKC mu) = target: T1, PRKD1 (PKC mu) (Homo sapiens, UniProt Q15139); assay: SelectScreen kinase assay
T1 sequence (Q15139 1-912): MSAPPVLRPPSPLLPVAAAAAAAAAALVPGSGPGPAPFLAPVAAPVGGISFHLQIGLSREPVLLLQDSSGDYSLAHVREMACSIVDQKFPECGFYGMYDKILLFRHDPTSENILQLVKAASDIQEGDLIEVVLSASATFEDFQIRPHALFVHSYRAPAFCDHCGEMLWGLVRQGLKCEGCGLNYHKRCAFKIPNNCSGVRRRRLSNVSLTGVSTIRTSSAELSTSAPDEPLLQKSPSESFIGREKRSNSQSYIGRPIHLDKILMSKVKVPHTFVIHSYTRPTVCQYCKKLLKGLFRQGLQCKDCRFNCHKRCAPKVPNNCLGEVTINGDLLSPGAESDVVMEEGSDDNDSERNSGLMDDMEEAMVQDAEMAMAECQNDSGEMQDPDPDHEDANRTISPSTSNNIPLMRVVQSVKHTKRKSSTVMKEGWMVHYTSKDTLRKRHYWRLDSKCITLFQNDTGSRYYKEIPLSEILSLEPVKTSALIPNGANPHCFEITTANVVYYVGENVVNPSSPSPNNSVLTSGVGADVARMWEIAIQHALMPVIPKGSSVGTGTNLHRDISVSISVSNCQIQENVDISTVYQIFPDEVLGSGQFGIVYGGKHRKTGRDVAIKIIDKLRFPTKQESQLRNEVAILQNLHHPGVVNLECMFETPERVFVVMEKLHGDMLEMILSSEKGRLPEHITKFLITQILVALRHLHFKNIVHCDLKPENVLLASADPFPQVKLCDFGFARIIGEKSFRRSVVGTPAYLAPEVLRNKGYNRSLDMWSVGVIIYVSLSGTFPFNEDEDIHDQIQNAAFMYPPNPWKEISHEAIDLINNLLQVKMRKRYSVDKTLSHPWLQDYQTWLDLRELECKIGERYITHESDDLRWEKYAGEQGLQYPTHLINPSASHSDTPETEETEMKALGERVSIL
Protocol: as §1

MAP4K1 (HPK1) = MAP4K1 (HPK1) (Homo sapiens, UniProt Q92918); assay: SelectScreen kinase assay
Protocol: as §1

GSG2 (Haspin) = GSG2 (Haspin) (Homo sapiens, UniProt Q8TF76); assay: SelectScreen kinase assay
Protocol: as §1

CSNK1A1 (CK1 alpha 1) = CSNK1A1 (CK1 alpha 1) (Homo sapiens, UniProt P48729); assay: SelectScreen kinase assay
Protocol: as §1

KIT = KIT (Homo sapiens, UniProt P10721); assay: SelectScreen kinase assay
Sequence of KIT (P10721 26-976): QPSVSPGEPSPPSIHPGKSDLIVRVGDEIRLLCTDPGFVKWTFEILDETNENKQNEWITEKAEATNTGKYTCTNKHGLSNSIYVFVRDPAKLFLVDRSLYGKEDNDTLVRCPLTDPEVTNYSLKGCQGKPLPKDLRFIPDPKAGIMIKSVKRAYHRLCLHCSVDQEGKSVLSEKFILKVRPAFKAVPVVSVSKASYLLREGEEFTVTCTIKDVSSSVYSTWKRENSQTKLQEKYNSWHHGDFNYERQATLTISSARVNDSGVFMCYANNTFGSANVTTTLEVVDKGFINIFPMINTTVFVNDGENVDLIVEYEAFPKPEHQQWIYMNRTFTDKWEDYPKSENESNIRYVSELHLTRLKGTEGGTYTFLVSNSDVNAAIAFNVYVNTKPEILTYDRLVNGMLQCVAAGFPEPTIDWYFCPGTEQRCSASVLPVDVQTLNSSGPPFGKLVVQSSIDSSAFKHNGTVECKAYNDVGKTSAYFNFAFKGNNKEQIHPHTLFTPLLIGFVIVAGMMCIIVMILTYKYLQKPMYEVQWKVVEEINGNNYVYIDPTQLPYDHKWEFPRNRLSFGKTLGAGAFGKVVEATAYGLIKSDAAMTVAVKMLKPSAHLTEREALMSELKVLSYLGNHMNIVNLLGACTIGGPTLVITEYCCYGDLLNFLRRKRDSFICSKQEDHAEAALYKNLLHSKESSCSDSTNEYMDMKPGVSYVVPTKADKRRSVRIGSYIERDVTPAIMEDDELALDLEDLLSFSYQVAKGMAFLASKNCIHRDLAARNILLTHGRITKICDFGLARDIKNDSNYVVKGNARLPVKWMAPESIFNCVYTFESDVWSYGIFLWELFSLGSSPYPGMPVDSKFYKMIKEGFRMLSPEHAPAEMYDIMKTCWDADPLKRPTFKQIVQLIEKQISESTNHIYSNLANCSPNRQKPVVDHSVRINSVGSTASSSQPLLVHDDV
Protocol: as §1

NLK = NLK (Homo sapiens, UniProt Q9UBE8); assay: SelectScreen kinase assay
Protocol: as §1

[1] = test system: FES^S700C HL-60 neutrophils; assay: Neutrophil oxidative burst assay (NBT); format: cell-based, human
NEK8 = NEK8 (Homo sapiens, UniProt Q86SG6); assay: SelectScreen kinase assay
Protocol: as §1

PAK4 = PAK4 (Homo sapiens, UniProt O96013); assay: SelectScreen kinase assay
Protocol: as §1

PRKCG (PKC gamma) = PRKCG (PKC gamma) (Homo sapiens, UniProt P05129); assay: SelectScreen kinase assay; conditions: for Inhibition at 1 µM (%): PRKCG (PKC gamma), ZLYTE, ATP Km app
Protocol: as §1

MAP3K19 (YSK4) = MAP3K19 (YSK4) (Homo sapiens, UniProt Q56UN5); assay: SelectScreen kinase assay
Protocol: as §1

ABL2 (Arg) = ABL2 (Arg) (Homo sapiens, UniProt P42684); assay: SelectScreen kinase assay; conditions: for Inhibition at 1 µM (%): ABL2 (Arg), ZLYTE, ATP Km app
Sequence of ABL2 (Arg) (P42684 whole entry): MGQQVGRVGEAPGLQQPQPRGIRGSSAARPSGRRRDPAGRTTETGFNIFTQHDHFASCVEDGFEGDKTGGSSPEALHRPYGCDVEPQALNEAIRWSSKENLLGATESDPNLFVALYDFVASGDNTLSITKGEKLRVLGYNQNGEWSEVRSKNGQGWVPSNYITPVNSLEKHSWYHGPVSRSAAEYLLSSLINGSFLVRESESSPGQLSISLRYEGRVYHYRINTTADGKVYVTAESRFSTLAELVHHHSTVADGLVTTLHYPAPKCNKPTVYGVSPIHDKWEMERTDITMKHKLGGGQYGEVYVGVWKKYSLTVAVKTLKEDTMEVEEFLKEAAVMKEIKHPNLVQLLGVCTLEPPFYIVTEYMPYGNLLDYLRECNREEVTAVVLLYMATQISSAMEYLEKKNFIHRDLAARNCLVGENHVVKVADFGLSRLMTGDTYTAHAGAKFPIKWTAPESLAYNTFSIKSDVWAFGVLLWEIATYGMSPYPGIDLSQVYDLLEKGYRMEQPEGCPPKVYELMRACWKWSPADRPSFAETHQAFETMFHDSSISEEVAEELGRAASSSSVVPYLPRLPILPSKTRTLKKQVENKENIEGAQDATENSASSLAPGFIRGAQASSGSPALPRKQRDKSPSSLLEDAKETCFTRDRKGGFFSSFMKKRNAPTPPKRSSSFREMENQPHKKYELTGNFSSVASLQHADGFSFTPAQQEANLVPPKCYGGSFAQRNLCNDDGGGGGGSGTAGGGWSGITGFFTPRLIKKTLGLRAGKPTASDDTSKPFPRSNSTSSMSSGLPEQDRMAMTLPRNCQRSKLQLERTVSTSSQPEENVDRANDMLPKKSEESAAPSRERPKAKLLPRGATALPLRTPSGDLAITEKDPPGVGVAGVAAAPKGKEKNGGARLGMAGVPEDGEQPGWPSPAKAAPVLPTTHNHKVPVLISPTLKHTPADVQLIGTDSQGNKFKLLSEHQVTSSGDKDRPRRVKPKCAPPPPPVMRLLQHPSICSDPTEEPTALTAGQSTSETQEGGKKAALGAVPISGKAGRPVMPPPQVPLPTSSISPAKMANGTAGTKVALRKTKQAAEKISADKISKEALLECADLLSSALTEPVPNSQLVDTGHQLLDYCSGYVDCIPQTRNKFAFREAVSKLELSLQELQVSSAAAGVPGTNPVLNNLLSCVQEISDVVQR
Protocol: as §1

SBK1 = SBK1 (Homo sapiens, UniProt Q52WX2); assay: SelectScreen kinase assay
Protocol: as §1

[2] = target: PIK3CD/PIK3R1 (p110d/p85a) (Homo sapiens, UniProt O00329); assay: SelectScreen kinase assay; conditions: 1 h, 1 μM WEL028, 1 h preincubation
Protocol: as §1

STK38 (NDR) = STK38 (NDR) (Homo sapiens, UniProt Q15208); assay: SelectScreen kinase assay; conditions: for Inhibition at 1 µM (%): LanthaScreen Binding
Sequence of STK38 (NDR) (Q15208 whole entry): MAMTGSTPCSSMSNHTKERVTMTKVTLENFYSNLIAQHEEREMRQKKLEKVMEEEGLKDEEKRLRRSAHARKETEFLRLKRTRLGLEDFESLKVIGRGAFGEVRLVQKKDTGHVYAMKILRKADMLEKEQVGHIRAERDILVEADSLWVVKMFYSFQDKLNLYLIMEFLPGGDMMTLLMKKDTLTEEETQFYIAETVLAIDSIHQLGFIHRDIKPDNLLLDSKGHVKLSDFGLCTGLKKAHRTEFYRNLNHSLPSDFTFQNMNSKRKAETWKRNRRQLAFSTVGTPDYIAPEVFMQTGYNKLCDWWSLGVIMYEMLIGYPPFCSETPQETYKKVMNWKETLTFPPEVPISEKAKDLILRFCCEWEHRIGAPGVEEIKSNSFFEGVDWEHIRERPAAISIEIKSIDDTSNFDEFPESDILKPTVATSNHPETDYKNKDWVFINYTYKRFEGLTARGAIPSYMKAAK
Protocol: as §1

MARK3 = MARK3 (Homo sapiens, UniProt P27448); assay: SelectScreen kinase assay
Protocol: as §1

MAPK7 (ERK5) = MAPK7 (ERK5) (Homo sapiens, UniProt Q13164); assay: SelectScreen kinase assay
Sequence of MAPK7 (ERK5) (Q13164 whole entry): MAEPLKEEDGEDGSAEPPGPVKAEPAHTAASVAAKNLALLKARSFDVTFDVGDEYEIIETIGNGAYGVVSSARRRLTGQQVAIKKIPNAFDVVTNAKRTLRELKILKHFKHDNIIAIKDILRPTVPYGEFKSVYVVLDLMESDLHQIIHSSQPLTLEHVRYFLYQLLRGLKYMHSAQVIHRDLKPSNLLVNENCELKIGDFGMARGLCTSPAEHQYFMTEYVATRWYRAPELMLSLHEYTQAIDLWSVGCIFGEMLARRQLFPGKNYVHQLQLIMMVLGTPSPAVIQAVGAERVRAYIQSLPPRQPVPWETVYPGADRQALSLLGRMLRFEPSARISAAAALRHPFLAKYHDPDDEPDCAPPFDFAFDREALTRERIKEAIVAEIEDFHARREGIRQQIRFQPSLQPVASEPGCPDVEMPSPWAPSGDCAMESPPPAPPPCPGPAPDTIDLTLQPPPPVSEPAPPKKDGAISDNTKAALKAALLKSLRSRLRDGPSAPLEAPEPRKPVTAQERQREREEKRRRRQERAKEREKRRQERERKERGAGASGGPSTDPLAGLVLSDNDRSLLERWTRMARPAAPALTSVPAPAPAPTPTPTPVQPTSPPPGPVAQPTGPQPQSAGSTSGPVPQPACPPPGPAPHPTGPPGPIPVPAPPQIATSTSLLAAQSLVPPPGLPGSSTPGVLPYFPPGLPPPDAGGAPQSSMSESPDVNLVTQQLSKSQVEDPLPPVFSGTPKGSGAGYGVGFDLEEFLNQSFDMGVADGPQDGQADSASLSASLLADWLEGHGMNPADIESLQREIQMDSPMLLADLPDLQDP
Protocol: as §1

PI4KB (PI4K beta) = PI4KB (PI4K beta) (Homo sapiens, UniProt Q9UBF8); assay: SelectScreen kinase assay
Protocol: as §1

FGR = FGR (Homo sapiens, UniProt P09769); assay: SelectScreen kinase assay
Sequence of FGR (P09769 whole entry): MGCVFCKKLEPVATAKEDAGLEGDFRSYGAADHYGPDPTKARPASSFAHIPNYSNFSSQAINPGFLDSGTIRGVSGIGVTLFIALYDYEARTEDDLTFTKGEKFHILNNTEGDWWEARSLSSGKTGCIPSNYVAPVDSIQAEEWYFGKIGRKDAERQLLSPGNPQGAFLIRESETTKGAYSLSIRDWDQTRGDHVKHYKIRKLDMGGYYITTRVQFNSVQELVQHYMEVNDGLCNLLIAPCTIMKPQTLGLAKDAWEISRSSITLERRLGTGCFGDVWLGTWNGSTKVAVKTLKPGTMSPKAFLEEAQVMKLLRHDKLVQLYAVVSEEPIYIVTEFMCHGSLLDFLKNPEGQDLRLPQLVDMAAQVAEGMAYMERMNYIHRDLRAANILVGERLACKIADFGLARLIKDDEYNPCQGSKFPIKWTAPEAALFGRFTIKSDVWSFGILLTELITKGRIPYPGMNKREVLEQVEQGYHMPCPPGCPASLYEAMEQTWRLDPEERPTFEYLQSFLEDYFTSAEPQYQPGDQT
Protocol: as §1

MAPKAPK3 = MAPKAPK3 (Homo sapiens, UniProt Q16644); assay: SelectScreen kinase assay
Protocol: as §1

[3] = 1 µM, ZLYTE, ATP Km app, listed as WEL028, 1 µM
[4] = 1 h, 1 μM WEL028, 1 h preincubation

Sequence of MAPK14 (p38 alpha) (Q16539 whole entry): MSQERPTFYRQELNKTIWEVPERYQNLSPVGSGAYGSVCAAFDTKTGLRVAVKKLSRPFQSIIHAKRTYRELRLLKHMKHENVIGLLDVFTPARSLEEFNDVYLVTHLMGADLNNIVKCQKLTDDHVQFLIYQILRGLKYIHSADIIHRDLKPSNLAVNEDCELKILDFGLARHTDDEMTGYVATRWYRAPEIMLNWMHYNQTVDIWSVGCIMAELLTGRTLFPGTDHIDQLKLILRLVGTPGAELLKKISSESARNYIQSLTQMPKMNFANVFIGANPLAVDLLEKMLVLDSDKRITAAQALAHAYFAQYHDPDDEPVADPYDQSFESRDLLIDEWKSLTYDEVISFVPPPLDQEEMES

For `C#CCOc1ccc(Nc2ncc(Cl)c(Nc3ccccc3NC(=O)C=C)n2)c(OC)c1` [Compound 6], the “Inhibition (%)” value (MAPK14 (p38 alpha); 1 μM WEL028, 1 h preincubation) was 7%, the “Inhibition at 1 µM (%)” value (MAPK14 (p38 alpha); MAPK14 (p38 alpha) Direct, 1 µM, ZLYTE, ATP Km app, listed as WEL028, 1 µM) was 4% and 10% and the “Inhibition at 1 µM (%)” value (PRKD1 (PKC mu); [3]) was 9%. For the same compound, the inhibition at 1 µM (PRKD1 (PKC mu); [4]) was 11%, the inhibition at 1 µM (PRKD1 (PKC mu); read-out: Inhibition at 1 µM (%), 1 µM, ZLYTE, ATP Km app) was 12% and the inhibition at 1 µM (MAP4K1 (HPK1); [4]) was 17%. For the same compound, the inhibition at 1 µM (MAP4K1 (HPK1); read-out: Inhibition at 1 µM (%), MAP4K1 (HPK1), 1 µM, LanthaScreen Binding) was 16%, the inhibition at 1 µM (GSG2 (Haspin); [4]) was 6% and the “Inhibition at 1 µM (%)” value (GSG2 (Haspin); GSG2 (Haspin), 1 µM, Adapta, ATP Km app) was 20%. The inhibition at 1 µM (CSNK1A1 (CK1 alpha 1); [4]) was 9%, the “Inhibition at 1 µM (%)” value (CSNK1A1 (CK1 alpha 1); CSNK1A1 (CK1 alpha 1), 1 µM, ZLYTE, ATP Km app, listed as WEL028, 1 µM) was 12% and the inhibition at 1 µM (CSNK1A1 (CK1 alpha 1); read-out: Inhibition at 1 µM (%), CSNK1A1 (CK1 alpha 1), 1 µM, ZLYTE, ATP Km app) was 6%. For the same compound, the inhibition at 1 µM (KIT; [4]) was 18%, the “Inhibition at 1 µM (%)” value (KIT; KIT, 1 µM, ZLYTE, ATP Km app, listed as WEL028, 1 µM) was 16% and the inhibition at 1 µM (KIT; read-out: Inhibition at 1 µM (%), KIT, 1 µM, ZLYTE, ATP Km app) was 21%. The inhibition at 1 µM (NLK; [4]) was 3%, the inhibition at 1 µM (NLK; read-out: Inhibition at 1 µM (%), NLK, 1 µM, LanthaScreen Binding) was 4% and the “Formazan-positive cells (%)” value ([1]; 100 nM, Supplementary Figure 12f, individual replicates, listed as WEL028) was 79.976% and 78.7671% and 73.0614%. For the same compound, the “Percentage of formazan-positive cells” value ([1]; WEL028 prior to PMA stimulation) was “did not affect”, the inhibition at 1 µM (NEK8; [4]) was 7% and the “Inhibition at 1 µM (%)” value (NEK8; NEK8, 1 µM, LanthaScreen Binding, listed as WEL028, 1 µM) was 2% and 12%. The inhibition at 1 µM (PAK4; [4]) was -4%, the “Inhibition at 1 µM (%)” value (PAK4; PAK4, 1 µM, ZLYTE, ATP Km app, listed as WEL028, 1 µM) was -8% and 1% and the inhibition at 1 µM (PRKCG (PKC gamma); [4]) was 1%. For the same compound, the “Inhibition at 1 µM (%)” value (PRKCG (PKC gamma)) was -3%, the “Inhibition at 1 µM (%)” value (PRKCG (PKC gamma); listed as WEL028, 1 µM) was 5% and the inhibition at 1 µM (MAP3K19 (YSK4); [4]) was 0%. The “Inhibition at 1 µM (%)” value (MAP3K19 (YSK4); MAP3K19 (YSK4), 1 µM, ZLYTE, ATP Km app, listed as WEL028, 1 µM) was -1% and 1%, the inhibition at 1 µM (ABL2 (Arg); [4]) was -5% and the “Inhibition at 1 µM (%)” value (ABL2 (Arg)) was -2%. For the same compound, the “Inhibition at 1 µM (%)” value (ABL2 (Arg); listed as WEL028, 1 µM) was -9%, the “Inhibition at 1 µM (%)” value (SBK1; [3]) was 1% and 8% and the inhibition at 1 µM (SBK1; [4]) was 5%. The inhibition at 1 µM [2] was 8%, the “Inhibition at 1 µM (%)” value (STK38 (NDR)) was 2% and the “Inhibition at 1 µM (%)” value (STK38 (NDR); listed as WEL028, 1 µM) was 6%. For the same compound, the inhibition at 1 µM (STK38 (NDR); [4]) was 4%, the inhibition at 1 µM (MARK3; [4]) was 6% and the “Inhibition at 1 µM (%)” value (MARK3; MARK3, 1 µM, ZLYTE, ATP Km app, listed as WEL028, 1 µM) was 8%. The inhibition at 1 µM (MARK3; read-out: Inhibition at 1 µM (%), MARK3, 1 µM, ZLYTE, ATP Km app) was 5%, the inhibition at 1 µM (MAPK7 (ERK5); [4]) was 4% and the “Inhibition at 1 µM (%)” value (MAPK7 (ERK5); MAPK7 (ERK5), 1 µM, ZLYTE, ATP Km app, listed as WEL028, 1 µM) was 3%. For the same compound, the inhibition at 1 µM (MAPK7 (ERK5); read-out: Inhibition at 1 µM (%), MAPK7 (ERK5), 1 µM, ZLYTE, ATP Km app) was 4%, the inhibition at 1 µM (PI4KB (PI4K beta); [4]) was 34% and the “Inhibition at 1 µM (%)” value (PI4KB (PI4K beta); PI4KB (PI4K beta), 1 µM, Adapta, ATP Km app, listed as WEL028, 1 µM) was 37%. For the same compound, the inhibition at 1 µM (PI4KB (PI4K beta); read-out: Inhibition at 1 µM (%), PI4KB (PI4K beta), 1 µM, Adapta, ATP Km app) was 30%, the inhibition at 1 µM (FGR; [4]) was 10% and the “Inhibition at 1 µM (%)” value (FGR; FGR, 1 µM, ZLYTE, ATP Km app, listed as WEL028, 1 µM) was 12%. The inhibition at 1 µM (FGR; read-out: Inhibition at 1 µM (%), FGR, 1 µM, ZLYTE, ATP Km app) was 7%, the inhibition at 1 µM (MAPKAPK3; [4]) was 9% and the “Inhibition at 1 µM (%)” value (MAPKAPK3; MAPKAPK3, 1 µM, ZLYTE, ATP Km app, listed as WEL028, 1 µM) was 10%. For the same compound, the inhibition at 1 µM (MAPKAPK3; read-out: Inhibition at 1 µM (%), MAPKAPK3, 1 µM, ZLYTE, ATP Km app) was 9%.
